Results: patent publication US8466104B2, “Therapeutically active alpha MSH analogues” (AbbVie Inc., priority 2005, dated 2013)

Tests used:
[1] = system: neutrophil and eosinophil infiltration in BALF after LPS inhalation; test: Inhibition of neutrophil and eosinophil infiltration after LPS inhalation in rats (experimental setup 3); type: in vivo, rat; details: for number of eosinophils within the BALF / number of neutrophils within the BALF: 24 hours after LPS inhalation, 200 μg/kg bw iv bid; for effect on neutrophils within the BALF compared to a-MSH / reduction of eosinophils in the BALF / lungs: LPS inhalation
Experimental: Inhibition of Neutrophil and Eosinophil Infiltration after LPS Inhalation in Rats.
Male Sprague-Dawley rats (weight ˜200 g) from M&B A/S, DK-8680 Ry, Denmark, are used for all experiments. The rats are caged in standard cages type 3 and housed in a temperature- (22-24° C.) and moisture-controlled (40-70%) room with a 12 h light-dark cycle (light on from 6:00 A.M. to 6:00 P.M.). The diet is autoclaved Altromin 1324 special formulation, Produced by Altromin Denmark, Chr. Pedersen A/S, 4100 Ringsted, Denmark. Diet and water are administered ad libitum.
After acclimatization the rats are randomly allocated to the experimental groups and dosed i.v. with test compound at start of LPS-induction and once again 8 hours after LPS-induction.
Rats in groups of 3 are anaesthetized with 0.1 ml hypnorm/dormicum pr. 100 g and dosed i.v with the test compound. Immediately after dosing they are placed in the inhalation chamber where they are subjected to a nebulized LPS solution. The concentration of LPS is 1 mg/ml. Dosing time is 15 minutes. The rats are euthanized 24 hours after dosing with the test substance. At termination the rats are euthanized with CO2/O2. Then bronchoalveolar lavage is performed by installing and withdrawing 6×2.5 ml of PBS to the right lung. Lavage is done with the lungs remaining in the thorax after removing sternum and costae. The connection to the left lung is tied off during this procedure. Bronchoalveolar fluid (BALF) is centrifuged at 1000 rpm at 4° C. for 10 minutes. After removing the supernatant the cell pellet is resuspended in 0.5 ml PBS and total cell count performed. Two smears of BALF stained with May-Grüjwald Giemsa stain is made from each rat. BALF from each rat is subjected to total cell count and to differential count of leucocytes.
In addition to LPS infusion all rats are treated with bolus injections of either:
• a-MSH: 200 μg/kg/bw • a-MSH analogue: 200 μg/kg/bw
Data are presented as mean±S.E. Between group comparisons are performed by one way analysis of variance followed by Fishers Least Significant Difference test. Differences are considered significant at the 0.05 level.

[2] = system: LPS induced TNF-α production by human leucocytes (PBMC); test: Inhibition of LPS induced TNF-a production by human leucocytes in vitro (experimental setup 1); type: cell-based; details: for dose dependent reduction of LPS induced TNF-a accumulation / inhibitory effect on TNF-a accumulation compared to native a-MSH / LPS induced TNF-a accumulation, % of the maximal response (LPS-Vehicle): human leucocyte suspension; for LPS induced TNF-a accumulation, % of the maximal response (LPS-Vehicle): 10 ng LPS/mL, 18 hours, maximal effect (10^−7 M); for concentration at which the maximal inhibitory effect on LPS-induced TNF-α production was achieved: human lymphocyte suspension
Experimental: Inhibition of LPS Induced TNF-a Production by Human Leucocytes In Vitro
20 mL human blood is collected in vacutainer tubes containing EDTA. PBMC is isolated using Ficoll-Paque Plus as in Amersham's Instruction 71-7167-00 AD, 2002-06. PBMC is counted using Tryphan Blue Solution (Sigma) and incubated in RPMI 1640, (Applichem), supplemented with 10 mM Hepes (Sigma), 2 mM L-glutamin (Sigma), 0.1% BSA (Sigma) and 50U/50 μg/mL Penicillin/Streptomycin (Sigma) in the concentration 5×10^5 cells/mL. The isolated PBMC is incubated in a humidified 5% CO2, 95% air atmosphere, at 37° C., in 24 well flat-bottomed plates (Corning Incorporated) with medium, 10 ng LPS/mL (Sigma), and test compound. After 18 hours the samples are centrifuged, and TNF-α in the supernatants is measured using Tumour Necrosis Factor Alpha [(h)TNF-α] from Human Biotrak ELISA System (Amersham).
The samples are incubated as following per donor: • PBMC's in RPMI (Time Control) • PBMC's with 10 ng LPS/mL (Vehicle) • PBMC's, 10 ng LPS/mL, 10^−17M a-MSH or a-MSH analogue • PBMC's, 10 ng LPS/mL, 10^−15M a-MSH or a-MSH analogue • PBMC's, 10 ng LPS/mL, 10^−13M a-MSH or a-MSH analogue • PBMC's, 10 ng LPS/mL, 10^−11M a-MSH or a-MSH analogue • PBMC's, 10 ng LPS/mL, 10^−9M a-MSH or a-MSH analogue • PBMC's, 10 ng LPS/mL, 10^−7M a-MSH or a-MSH analogue
All samples are diluted from an initial stock solution between 1.4×10^−4M and 1.8×10^−3M. All solutions are handled in BSA coated vials in order to protect against binding of the compound to the surface of the vials.
Data is presented as mean±SE. The effect of test compounds on LPS induced TNF-a liberation is expressed as percentage of the TNF-a accumulation in the LPS-vehicle group. All comparisons are analysed with Student's unpaired t-test. Differences are considered significant at probability levels (p) of 0.05.

Row | Substance | number of eosinophils within the BALF [1] | effect on neutrophils within the BALF compared to a-MSH [1] | reduction of eosinophils in the BALF / lungs [1] | reduction of eosinophils in the BALF / lungs ([1]; listed as SEQ ID NO:1*) | dose dependent reduction of LPS induced TNF-a accumulation [2] | inhibitory effect on TNF-a accumulation compared to native a-MSH [2] | LPS induced TNF-a accumulation, % of the maximal response (LPS-Vehicle) [2] [%] | concentration at which the maximal inhibitory effect on LPS-induced TNF-α production was achieved [2] | number of neutrophils within the BALF [1] | effect on neutrophils within the BALF compared to a-MSH ([1]; listed as SEQ ID NO: 5*) | reduction of eosinophils in the BALF / lungs ([1]; listed as SEQ ID NO: 5*) | concentration at which the maximal inhibitory effect on LPS-induced TNF-α production was achieved ([2]; listed as α-MSH)
1 | Ac-Lys-Lys-Lys-Lys-Lys-Lys-Ser-Tyr-Ser-Met-Glu-His-Phe-Arg-Trp-Gly-Lys-Pro-Val-NH2 (Ac-KKKKKKSYSMEHFRWGKPV-NH2) [a-MSH analogue #1] | 49.0±10.5 ×10^5cells | similar | marked reduction of eosinophils | significantly inhibits | dose dependently reduce | markedly more pronounced | 47±2 | 10^−7 M |  |  |  | 
2 | Ac-Lys-Lys-Lys-Lys-Lys-Lys-Ser-Tyr-Ser-Nle-Glu-His-(D-Phe)-Arg-Trp-Gly-Lys-Pro-Val-NH2 (KKKKKKSYSXEHFRWGKPV; N-acetyl, Nle, D-Phe, C-amide) [a-MSH analogue #2] | 34.0±8.6 ×10^5cells | much more pronounced inhibitory effects | marked reduction of eosinophils |  | dose dependently reduce | markedly more pronounced | 42±111 | 10^−7 M | 9.1±2.4 ×10^5cells | markedly inhibited neutrophil infiltration to a much higher degree | significantly inhibits | 
3 | Ac-Lys-Lys-Lys-Lys-Lys-Lys-Ser-Tyr-Ser-Nle-Glu-His-D-Nal-Arg-Trp-Gly-Lys-Pro-Val-NH2 (KKKKKKSYSXEHXRWGKPV; not fully specified; N-acetyl, Nle, D-Nal, C-amide) [a-MSH analogue #3] |  |  |  |  | dose dependently reduce | markedly more pronounced | 53±13 |  |  |  |  | 
4 | Ser-Tyr-Ser-Met-Glu-His-Phe-Arg-Trp-Gly-Lys-Pro-Val [a-MSH, reference compound] | 26.7±4.3 ×10^5cells |  | marked reduction of eosinophils |  | dose dependently reduce |  | 73±9 |  | 20.1±2.5 ×10^5cells |  |  | 10^−7 M
